This is an account of results in publication PMC6336783, “Crystal structure of the multidrug resistance regulator RamR complexed with bile acids” (Scientific Reports, 2019).

The test system of data set [1] is ramA mRNA levels in ∆ramR Salmonella strain. The class given is cell-based, Salmonella enterica serovar Typhimurium. The settings on record: LB broth with 5 mM bile acid, qRT-PCR. As to the method: (§1) The bacterial strains and the plasmids used in this study are listed in Supplementary Table 3. The S. enterica serovar Typhimurium strains were the wild-type strain ATCC14028s[21] and its ∆ramR mutant (which was produced as described previously)[22]. Bacterial strains were grown at 37 °C in Luria–Bertani broth supplemented, when appropriate, with ampicillin (100 µg/ml), kanamycin (25 µg/ml) or chloramphenicol (25 µg/ml).
(§2) Bacteria were grown until mid-log phase (OD600 of 0.6) and harvested by centrifugation. Pelleted cells were stabilized with RNAprotect Bacteria Reagent (Qiagen) and stored at −80 °C until needed. Total RNA was extracted using an RNeasy Mini kit (Qiagen). Removal of residual genomic DNA was performed using a Turbo DNA-free kit (Ambion) and checked by negative PCR amplification of the chromosomal sequence. RNA integrity was verified by electrophoresis on a 1% agarose gel. Total RNA (1.5 µg) was reverse-transcribed using random hexamers and the Superscript III First Strand Synthesis System (Applied Biosystems). The expression level of each gene of interest was calculated as the average of the results from three independent cDNA samples. For each cDNA sample and each gene, qRT-PCR runs were performed in duplicated wells and the primers used for qRT-PCR are listed in Supplementary Table 4. The cycling conditions were: 95 °C for 5 min followed by 40 cycles of 95 °C for 10 s and then 60 °C for 15 s. After each run, amplification specificity and the absence of primer dimers were verified using a dissociation curve, acquired by heating the PCR products from 60 °C to 95 °C. The relative quantities of transcripts were determined using a standard curve and normalized against the geometric mean of three reference genes (gmk, gyrB and rrs).

Data set [2] has as its target interaction between RamR and PramA (Salmonella typhimurium, UniProt Q8ZR43). As to the kind of experiment: SPR inhibition of RamR binding to the 100-bp DNA fragment with the RamR-binding site. The settings on record: for inhibition at 500 µM: read-out: inhibition of the interaction between RamR and the DNA fragment.
The target in a further data set is T1, RamR (Salmonella typhimurium, UniProt Q8ZR43).
T1 construct: made in house
T1 sequence (Q8ZR43 1-193): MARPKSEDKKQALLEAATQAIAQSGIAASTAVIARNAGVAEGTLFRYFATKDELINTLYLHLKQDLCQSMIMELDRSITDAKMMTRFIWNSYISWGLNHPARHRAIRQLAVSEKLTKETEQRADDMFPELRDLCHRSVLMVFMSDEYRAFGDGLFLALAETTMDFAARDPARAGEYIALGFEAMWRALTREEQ
Kind of data set: SPR binding of bile acids to immobilized RamR. On the set-up: species or system Salmonella enterica serovar Typhimurium. The procedure: Because cholic and chenodeoxycholic acids induce ramA in a RamR-dependent manner, we hypothesized that these compounds are recognized by RamR. To test the possibility that cholic and chenodeoxycholic acids may bind to RamR, we employed surface plasmon resonance (SPR) analysis using a Biacore T200 instrument (GE Healthcare).
Dissociation was also recorded for 2 min.
A general note: SPR reads the build-up and loss of mass on a sensor chip optically.

The subject of data set [3] is ramA mRNA levels in wild-type S. Typhimurium strain. The format is cell-based, Salmonella enterica serovar Typhimurium. The note with it: LB broth with 5 mM bile acid, qRT-PCR. As to the method:
as §1, §2
A general note: Real-time PCR tracks product formation cycle by cycle.

Data set [4] concerns the molecule itself. As to the kind of experiment: crystal structure; co-crystals of RamR with a 5-fold molar excess of cholic or chenodeoxycholic acid; hanging drops, vapor diffusion, 25 °C; 20 mM sodium phosphate (pH 6.6), 75 mM NaCl, 2 mM DTT.

The term IC50 denotes the concentration needed to halve the response being measured. Low values mean higher potency, high ones lower potency. Usually inhibition stands for the share of the control response that was lost under treatment. What is called Kd is the constant that tells how readily two partners part at equilibrium. Low values mean tighter binding, high ones weaker binding. Take `C[C@H](CCC(=O)O)[C@H]1CC[C@H]2[C@@H]3[C@H](O)C[C@@H]4C[C@H](O)CC[C@]4(C)[C@H]3CC[C@]12C` [chenodeoxycholic acid, 3α, 7α-dihydroxy-5β-cholan-24-oic acid]: in data set [1], the “fold difference in ramA mRNA levels relative to the control in the same strain” value is given as 0.8 fold. In addition, in data set [2], the IC50 is 19.2 µM and the inhibition at 500 µM was at least 90%. In addition, at RamR, the affinity, expressed as Kd, was 65.3 µM.
Regarding `C[C@H](CCC(=O)O)[C@H]1CC[C@H]2[C@@H]3[C@H](O)C[C@@H]4C[C@H](O)CC[C@]4(C)[C@H]3C[C@H](O)[C@]12C` [cholic acid, 3α, 7α, 12α-trihydroxy-5β-cholan-24-oic acid], the “fold difference in ramA mRNA levels relative to the control in the same strain” value in data set [1] worked out at 1.6 fold. Moreover, in data set [2], the IC50 was determined as 33 µM and the inhibition at 500 µM was at least 90%. In addition, on RamR, the Kd came out at 60.5 µM.
On to `C[C@H](CCC(=O)O)[C@H]1CC[C@H]2[C@@H]3CC[C@@H]4C[C@H](O)CC[C@]4(C)[C@H]3C[C@H](O)[C@]12C` [deoxycholic acid, 3α, 12αdihydroxy-5β-cholan-24-oic acid], for which, in data set [1], the “fold difference in ramA mRNA levels relative to the control in the same strain” value is reported as 2.7 fold. Moreover, in data set [3], the “fold difference in ramA mRNA levels relative to the control in the same strain” value was determined as 1.7 fold. Further, in data set [2], the IC50 stood at 318 µM and the inhibition at 500 µM is around 50%.

B1: RamR (natural protein, Salmonella enterica serovar Typhimurium)
chain: ARPKSEDKKQALLEAATQAIAQSGIAASTAVIARNAGVAEGTLFRYFATKDELINTLYLHLKQDLCQSMIMELDRSITDAKMMTRFIWNSYISWGLNHPARHRAIRQLAVSEKLTKETEQRADDMFPELRDLCHRSVLMVFMSDEYRAFGDGLFLALAETTMDFAARDPARAGEYIALGFEAMWRALTREEQ
notes: RamR, TetR-family transcriptional repressor of ramA, Salmonella enterica serovar Typhimurium; ligand-free structure PDB 3VVX; also called multidrug resistance regulator RamR; local transcriptional repressor RamR
For the molecule B1, the binding result in data set [4] is “binds”.
